Entries after “also recorded” stand apart in the source; their conditions may differ.

One series deals with SCC VII. The experiment in a line: SCC VII squamous cell carcinoma tumor growth after irradiation in C3H mice. The following applies: IP morpholino 48 hours before irradiation. The format is in vivo, mouse. The procedure:
FIG. 19. CD47 suppression enhances re-growth delay in irradiated syngeneic B16 melanoma and squamous cell carcinoma tumors but increases radioresistance of B16 cells in vitro. C57BL/6 mice were injected with 1×10^6 B16 mouse melanoma cells into their right hindlimbs. Five days later, the mice were randomized into 4 groups (12 mice in each group) where they either received injections of CD47 morpholino (10 μM) in sterile PBS, PBS, or no injection. The two groups receiving injections were then subjected to radiation (10 Gy) to the effected hindlimb 48 hours later. The other two groups served as controls and consisted of tumor alone or tumor subjected to only the morpholino. Tumors were followed post-radiation for 30 days, measuring their volume every 6 days (FIG. 19A). Results are presented as the mean±SD of 12 mice in each treatment group and are representative of 3 independent studies. […] Cell (mitochondrial) viability was measured 48 hours post radiation using the MTT assay.
FIG. 20. […] Tumor growth was assessed as above. […]
In other experiments, C3H mice were injected in the right hindlimb with either 1.5×10^5 SCC VII cells, and tumors were allowed to establish for 1 week. […] The mice were observed and tumor size determined two to three times a week by the same individual until lesion size necessitated animal euthanasia.

The test system of the next series is B16 melanoma tumors. The experiment in a line: Histology, TUNEL and CD68 staining of irradiated B16 tumors. The format is in vivo, mouse. The following applies: morpholino 48 hours before 10 Gy, 24 hours post-radiation. As to the method:
FIG. 21. Increased fibrotic response, viable immune reaction, and macrophage infiltration is seen in tumors with suppressed CD47 expression. C57BL/6 mice were injected with 1×10^6 B16 mouse melanoma cells into their hind limbs. Treatment consisted of two groups where the hind limbs were treated with either 150 μl of PBS or 150 μl of CD47 morpholino (10 μM) 48 hours prior to radiation (10 Gy). The control group consisted of just tumor without radiation. 24 hours post-radiation the mice were sacrificed, and their hindlimbs were prepared in paraffin embedded tissue sections for analysis. The top panels represent hind limbs and tumors in each group stained by standard H&E protocol (FIG. 21A). […] Positive (apoptotic) cells are indicated by brown nuclear staining (FIG. 21B). […] Dark staining within the tumor indicates macrophage infiltration. Images were acquired using either a 4× or 10× objective.
Immunohistochemical Evaluation: Staining for the macrophage marker CD68 was done as previously described (Manso et al., Cancer Res 68:7090-7099, 2008) utilizing a rat anti-mouse CD68 antibody (AbD Serotec, Raleigh, N.C.). H&E staining of tissue hind limbs was prepared by American HistoLabs, Gaithersburg, Md.
Tissue Apoptosis: The ApopTag in situ detection kit (Chemicon, Millipore, Mass.) was used as described in Example 1. Additionally, animals were injected with 1×10^6 B16 melanoma cells and treated with either CD47 morpholino or sterile PBS as previously described. Mice were sacrificed 24 hours post irradiation (10 Gy), and hind limbs were embedded in paraffin blocks. Tissue sections incorporating the entire hind limb were examined for apoptosis employing 3′-hydroxy DNA strand breaks enzymatically labeled with digoxygenin nucleotide via TdT. Positive and negative control slides provided with the kit are used in each assay to ensure consistency.

The next series concerns HUVEC. The experiment in a line: HUVEC proliferation post-radiation (BrdU incorporation). It counts as cell-based, human. The following applies: treated 48 hours before 10 Gy, over 1 week (FIG. 14). As to the method:
FIG. 14. TSP1 and CD47 antibodies or antisense suppression of CD47 maintain proliferation of irradiated HUVEC. HUVEC were plated in 96-well plates in growth medium and treated with CD47 morpholino (FIG. 14A; *p<0.05, #p<0.01) TSP1, or CD47 antibodies (FIG. 14B; *p<0.05, #p<0.01) and exposed to 10 Gy irradiation 48 hours later. Cell proliferation at the indicated times post-radiation was determined by intracellular BrdU incorporation. Experiments were repeated 3 times, and results presented as the mean±SD.
FIG. 15. HUVEC protected by radioprotective agents are both viable and proliferate at a better rate than untreated cells in culture. Proliferation was assessed by quantifying incorporation of bromodeoxyuridine (BrdU) into newly synthesized DNA using a BrdU Cell Proliferation Assay. HUVEC were seeded into 96 well plates for 24 hours at 37° C., then treated with either antibody A6.1 or B6H12 or peptide 7N3. The treated cells were irradiated at 40 Gy 1 hour later. Control and irradiated plates were assayed for BrdU uptake over 96 hours post-radiation. The assay was performed according to the manufacturer's protocol, and the plates were read at 420 nm.
Cell proliferation assay: Proliferation was assessed by quantifying incorporation of bromodeoxyuridine (BrdU) into newly synthesized DNA using a BrdU Cell Proliferation Assay (Calbiochem, La Jolla, Calif.). Primary murine wild type, TSP1, TSP2, and CD47 null lung endothelial cells were seeded into 96 well plates at 5×10^4 cells/well density. After 24 hours incubation at 37° C. treatment groups were irradiated at 40 Gy. Control and irradiated plates were assayed for BrdU uptake over 24 hours starting at 48 to 168 hours post-radiation. The assay was performed according to the manufacturer's protocol, and the plates were read at 420 nm.
Proliferative capacities were also determined in endothelial cells exposed to high doses of radiation of 40 Gy. […] The assay was performed according to the manufacturer's protocol, and the plates were read at 420 nm.
(Dividing cells build labelled thymidine or BrdU into new DNA.)

With “CGTCACAGGCAGGACCCACTGCCCA (all phosphorodiamidate morpholino (PMO)) [CD47 morpholino, CD47 targeting morpholino oligonucleotide]”, the “tumor growth delay, intraperitoneal versus local administration” value in the series with SCC VII was “as effective as local delivery; also recorded: equivalent delay in tumor growth”. Besides, in the series with B16 melanoma tumors, the “H&E of irradiated tumors (fibrosis, necrosis)” value is “greater fibrosis and necrotic response”; the “apoptotic cells associated with the tumor (TUNEL)” value is “minimal numbers of apoptotic cells”; the “macrophage marker CD68 staining of tumors” value is “positive staining in the periphery”. The “proliferation (BrdU incorporation / DNA synthesis) after 10 Gy” value in the series with HUVEC is given as “maintained proliferation”.

The record behind these values is US8951527B2, “Radioprotectants targeting thrombospondin-1 and CD47” (The United States of America, as represented by the …, priority 2008, dated 2015).
